Experiments:
[1] = biological target: Tyrosine-protein kinase ABL1 (Homo sapiens) (UniProt P00519); conditions: Compound concentration 1000.0 nM
[2] = biological target: MAO-B (amine oxidase [flavin-containing] B) (Homo sapiens, UniProt P27338); experiment: MAO-B (h) recombinant enzyme Eurofins-Cerep enzyme and uptake assay; parameters: incubation time 60 min, incubation temperature 37°C, substrate/stimulus/tracer D-Luciferin derivative (4 µM); conditions: probe D-Luciferin derivative (4 µM), compound concentration 10 uM, read-out: % Inhibition of Control Values (Mean n=2)
[3] = biological target: Proto-oncogene tyrosine-protein kinase ROS (Homo sapiens) (UniProt P08922); conditions: Compound concentration 1000.0 nM
[4] = biological target: Ephrin type-A receptor 4 (Homo sapiens) (UniProt P54764); conditions: Compound concentration 1000.0 nM
[5] = biological target: Tyrosine-protein kinase ITK/TSK (Homo sapiens) (UniProt Q08881); conditions: Compound concentration 1000.0 nM
[6] = biological target: Non-receptor tyrosine-protein kinase TNK1 (Homo sapiens) (UniProt Q13470); conditions: Compound concentration 1000.0 nM
[7] = biological target: Mitogen-activated protein kinase 6 (Homo sapiens) (UniProt Q16659); conditions: Compound concentration 1000.0 nM
[8] = test system: Tyrosine-protein kinase ABL1 (Homo sapiens), P00519 [F317L]; conditions: Compound concentration 1000.0 nM
[9] = biological target: Casein kinase I isoform alpha (Homo sapiens) (UniProt P48729); conditions: Compound concentration 1000.0 nM
[10] = biological target: Tyrosine-protein kinase receptor UFO (Homo sapiens) (UniProt P30530); conditions: Compound concentration 1000.0 nM
[11] = biological target: Mitogen-activated protein kinase kinase kinase 19 (Homo sapiens) (UniProt Q56UN5); conditions: Compound concentration 1000.0 nM
[12] = biological target: Serine/threonine-protein kinase pim-1 (Homo sapiens) (UniProt P11309); conditions: Compound concentration 1000.0 nM
Serine/threonine-protein kinase pim-1 (Homo sapiens), sequence (P11309 whole entry, looked up): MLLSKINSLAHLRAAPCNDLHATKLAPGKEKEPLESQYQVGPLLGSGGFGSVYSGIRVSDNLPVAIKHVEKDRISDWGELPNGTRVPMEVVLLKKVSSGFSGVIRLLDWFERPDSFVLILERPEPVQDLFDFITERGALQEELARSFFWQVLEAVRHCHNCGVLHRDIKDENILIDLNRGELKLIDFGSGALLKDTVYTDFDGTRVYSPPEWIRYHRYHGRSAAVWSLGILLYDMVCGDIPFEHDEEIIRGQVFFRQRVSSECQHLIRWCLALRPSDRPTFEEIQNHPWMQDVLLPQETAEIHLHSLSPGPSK

[13] = biological target: Serine/threonine-protein kinase Nek4 (Homo sapiens) (UniProt P51957); conditions: Compound concentration 1000.0 nM
[14] = biological target: Sodium/potassium-transporting ATPase (Sus scrofa) (UniProt P05027+P05024+D2WKD8+D2WKD7+F1ST41); experiment: ATPase (Na+/K+) Eurofins-Cerep enzyme and uptake assay; type: protein-complex assay; conditions: Compound concentration 10.0 uM
[15] = biological target: Serine/threonine-protein kinase N1 (Homo sapiens) (UniProt Q16512); conditions: Compound concentration 1000.0 nM
Serine/threonine-protein kinase N1 (Homo sapiens), sequence (Q16512 2-942 limits assumed): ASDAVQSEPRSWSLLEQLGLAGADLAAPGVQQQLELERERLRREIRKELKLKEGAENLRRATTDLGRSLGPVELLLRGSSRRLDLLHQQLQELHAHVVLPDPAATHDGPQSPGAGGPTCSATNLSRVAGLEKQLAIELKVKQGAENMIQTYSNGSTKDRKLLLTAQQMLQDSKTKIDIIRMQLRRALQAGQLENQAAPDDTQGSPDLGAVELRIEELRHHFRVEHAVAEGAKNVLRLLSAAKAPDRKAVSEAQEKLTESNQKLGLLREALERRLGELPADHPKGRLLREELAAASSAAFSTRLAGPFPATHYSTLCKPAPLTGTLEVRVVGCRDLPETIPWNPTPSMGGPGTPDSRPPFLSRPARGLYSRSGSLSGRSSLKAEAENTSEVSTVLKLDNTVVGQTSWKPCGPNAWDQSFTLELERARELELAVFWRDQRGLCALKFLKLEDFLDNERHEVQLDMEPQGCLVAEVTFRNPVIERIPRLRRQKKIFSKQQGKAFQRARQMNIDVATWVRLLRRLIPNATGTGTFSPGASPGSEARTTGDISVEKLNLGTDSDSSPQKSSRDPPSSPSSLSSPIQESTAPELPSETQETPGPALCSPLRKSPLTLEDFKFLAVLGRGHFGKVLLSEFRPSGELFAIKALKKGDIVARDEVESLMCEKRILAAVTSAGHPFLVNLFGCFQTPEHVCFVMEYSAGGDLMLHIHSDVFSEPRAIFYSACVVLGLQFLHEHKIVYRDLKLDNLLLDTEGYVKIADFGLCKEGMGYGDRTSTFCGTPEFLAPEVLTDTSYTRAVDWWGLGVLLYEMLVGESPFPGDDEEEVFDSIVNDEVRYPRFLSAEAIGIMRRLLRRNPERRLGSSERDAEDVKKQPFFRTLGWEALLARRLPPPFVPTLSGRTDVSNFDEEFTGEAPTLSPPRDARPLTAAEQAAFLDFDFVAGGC

[16] = biological target: RAC-beta serine/threonine-protein kinase (Homo sapiens) (UniProt P31751); conditions: Compound concentration 1000.0 nM
[17] = test system: Epidermal growth factor receptor (Homo sapiens), P00533 [T790M]; conditions: Compound concentration 1000.0 nM
[18] = biological target: Cyclin-dependent kinase 8 (Homo sapiens) (UniProt P49336); conditions: Compound concentration 1000.0 nM
[19] = biological target: Cyclin-dependent kinase 11B (Homo sapiens) (UniProt P21127); conditions: Compound concentration 1000.0 nM
[20] = biological target: Calcium/calmodulin-dependent protein kinase type 1G (Homo sapiens) (UniProt Q96NX5); conditions: Compound concentration 1000.0 nM
Calcium/calmodulin-dependent protein kinase type 1G (Homo sapiens), sequence (Q96NX5 whole entry): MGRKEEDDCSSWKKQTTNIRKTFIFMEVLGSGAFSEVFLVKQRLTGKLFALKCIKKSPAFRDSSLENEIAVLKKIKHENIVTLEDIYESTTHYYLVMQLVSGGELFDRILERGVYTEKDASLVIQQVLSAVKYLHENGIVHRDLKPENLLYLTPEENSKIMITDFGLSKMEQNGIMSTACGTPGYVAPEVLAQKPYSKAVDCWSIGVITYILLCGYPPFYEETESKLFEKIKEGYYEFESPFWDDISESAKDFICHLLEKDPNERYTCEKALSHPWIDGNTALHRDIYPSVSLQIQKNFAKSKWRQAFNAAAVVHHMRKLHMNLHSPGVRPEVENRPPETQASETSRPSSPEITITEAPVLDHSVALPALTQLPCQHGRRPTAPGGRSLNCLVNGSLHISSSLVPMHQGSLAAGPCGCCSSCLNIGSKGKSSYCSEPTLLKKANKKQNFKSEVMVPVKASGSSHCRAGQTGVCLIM

[21] = biological target: Serine/threonine-protein kinase MAK (Homo sapiens) (UniProt P20794); conditions: Compound concentration 1000.0 nM
[22] = biological target: Serine/threonine-protein kinase RIO1 (Homo sapiens) (UniProt Q9BRS2); conditions: Compound concentration 1000.0 nM
Serine/threonine-protein kinase RIO1 (Homo sapiens), sequence (Q9BRS2 whole entry): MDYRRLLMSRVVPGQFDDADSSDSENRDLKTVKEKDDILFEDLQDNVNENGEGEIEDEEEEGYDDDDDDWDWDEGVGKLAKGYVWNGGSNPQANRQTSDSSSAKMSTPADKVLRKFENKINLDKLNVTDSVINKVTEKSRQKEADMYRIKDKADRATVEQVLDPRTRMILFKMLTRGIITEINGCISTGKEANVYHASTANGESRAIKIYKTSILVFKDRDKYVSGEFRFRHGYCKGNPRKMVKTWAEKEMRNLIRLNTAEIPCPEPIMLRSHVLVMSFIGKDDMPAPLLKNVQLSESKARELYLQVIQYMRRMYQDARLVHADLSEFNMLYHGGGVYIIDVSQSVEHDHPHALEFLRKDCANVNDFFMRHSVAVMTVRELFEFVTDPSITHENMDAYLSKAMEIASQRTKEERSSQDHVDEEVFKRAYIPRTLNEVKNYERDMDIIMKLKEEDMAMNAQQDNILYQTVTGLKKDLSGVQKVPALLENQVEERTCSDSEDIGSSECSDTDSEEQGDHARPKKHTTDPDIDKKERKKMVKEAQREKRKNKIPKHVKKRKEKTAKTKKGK

[23] = biological target: Ribosomal protein S6 kinase alpha-6 (Homo sapiens) (UniProt Q9UK32); conditions: Compound concentration 1000.0 nM
[24] = biological target: Bone morphogenetic protein receptor type-1B (Homo sapiens) (UniProt O00238); conditions: Compound concentration 1000.0 nM
[25] = biological target: TGF-beta receptor type-2 (Homo sapiens) (UniProt P37173); conditions: Compound concentration 1000.0 nM
[26] = biological target: Myosin light chain kinase 2, skeletal/cardiac muscle (Homo sapiens) (UniProt Q9H1R3); conditions: Compound concentration 1000.0 nM
[27] = biological target: Dual specificity mitogen-activated protein kinase kinase 1 (Homo sapiens) (UniProt Q02750); conditions: Compound concentration 1000.0 nM
Dual specificity mitogen-activated protein kinase kinase 1 (Homo sapiens), sequence (Q02750 whole entry): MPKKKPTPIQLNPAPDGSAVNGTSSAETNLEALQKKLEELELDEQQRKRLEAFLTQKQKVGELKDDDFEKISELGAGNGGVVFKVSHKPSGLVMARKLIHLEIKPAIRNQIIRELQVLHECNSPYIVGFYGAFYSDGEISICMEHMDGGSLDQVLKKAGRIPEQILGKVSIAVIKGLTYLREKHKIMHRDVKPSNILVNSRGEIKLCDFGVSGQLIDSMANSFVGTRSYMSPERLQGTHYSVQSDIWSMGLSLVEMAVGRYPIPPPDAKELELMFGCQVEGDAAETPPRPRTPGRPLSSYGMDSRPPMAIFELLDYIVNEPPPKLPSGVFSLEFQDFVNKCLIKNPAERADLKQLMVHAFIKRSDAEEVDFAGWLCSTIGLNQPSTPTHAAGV

[28] = biological target: Myosin light chain kinase (Homo sapiens) (UniProt Q32MK0); conditions: Compound concentration 1000.0 nM
[29] = biological target: NUAK family SNF1-like kinase 2 (Homo sapiens) (UniProt Q9H093); conditions: Compound concentration 1000.0 nM
[30] = biological target: Serine/threonine-protein kinase PAK 5 (Homo sapiens) (UniProt Q9P286); conditions: Compound concentration 1000.0 nM
[31] = biological target: 5-hydroxytryptamine receptor 4 (Homo sapiens) (UniProt Q13639); experiment: 5-HT4 e (h) Eurofins-Cerep binding assay; parameters: ligand concentration 0.3 nM; conditions: filed as antagonist, Compound concentration 10.0 uM
[32] = biological target: Sodium-dependent dopamine transporter (Homo sapiens) (UniProt Q01959); experiment: dopamine transporter (h) Eurofins-Cerep binding assay; parameters: ligand concentration 4 nM; conditions: filed as antagonist, Compound concentration 10.0 uM
[33] = biological target: Kappa-type opioid receptor (Homo sapiens) (UniProt P41145); experiment: kappa (h) (KOP) Eurofins-Cerep binding assay; parameters: ligand concentration 0.5 nM; conditions: filed as agonist, Compound concentration 10.0 uM
[34] = biological target: Mitogen-activated protein kinase kinase kinase 3 (Homo sapiens) (UniProt Q99759); conditions: Compound concentration 1000.0 nM
[35] = biological target: Serine/threonine-protein kinase SIK1 (Homo sapiens) (UniProt P57059); conditions: Compound concentration 1000.0 nM
[36] = biological target: Epidermal growth factor receptor (Homo sapiens) (UniProt P00533); conditions: Compound concentration 1000.0 nM
[37] = biological target: Phosphatidylinositol 4-phosphate 5-kinase type-1 alpha (Homo sapiens) (UniProt Q99755); conditions: Compound concentration 1000.0 nM
[38] = biological target: Homeodomain-interacting protein kinase 1 (Homo sapiens) (UniProt Q86Z02); conditions: Compound concentration 1000.0 nM
Homeodomain-interacting protein kinase 1 (Homo sapiens), sequence (Q86Z02 whole entry, looked up): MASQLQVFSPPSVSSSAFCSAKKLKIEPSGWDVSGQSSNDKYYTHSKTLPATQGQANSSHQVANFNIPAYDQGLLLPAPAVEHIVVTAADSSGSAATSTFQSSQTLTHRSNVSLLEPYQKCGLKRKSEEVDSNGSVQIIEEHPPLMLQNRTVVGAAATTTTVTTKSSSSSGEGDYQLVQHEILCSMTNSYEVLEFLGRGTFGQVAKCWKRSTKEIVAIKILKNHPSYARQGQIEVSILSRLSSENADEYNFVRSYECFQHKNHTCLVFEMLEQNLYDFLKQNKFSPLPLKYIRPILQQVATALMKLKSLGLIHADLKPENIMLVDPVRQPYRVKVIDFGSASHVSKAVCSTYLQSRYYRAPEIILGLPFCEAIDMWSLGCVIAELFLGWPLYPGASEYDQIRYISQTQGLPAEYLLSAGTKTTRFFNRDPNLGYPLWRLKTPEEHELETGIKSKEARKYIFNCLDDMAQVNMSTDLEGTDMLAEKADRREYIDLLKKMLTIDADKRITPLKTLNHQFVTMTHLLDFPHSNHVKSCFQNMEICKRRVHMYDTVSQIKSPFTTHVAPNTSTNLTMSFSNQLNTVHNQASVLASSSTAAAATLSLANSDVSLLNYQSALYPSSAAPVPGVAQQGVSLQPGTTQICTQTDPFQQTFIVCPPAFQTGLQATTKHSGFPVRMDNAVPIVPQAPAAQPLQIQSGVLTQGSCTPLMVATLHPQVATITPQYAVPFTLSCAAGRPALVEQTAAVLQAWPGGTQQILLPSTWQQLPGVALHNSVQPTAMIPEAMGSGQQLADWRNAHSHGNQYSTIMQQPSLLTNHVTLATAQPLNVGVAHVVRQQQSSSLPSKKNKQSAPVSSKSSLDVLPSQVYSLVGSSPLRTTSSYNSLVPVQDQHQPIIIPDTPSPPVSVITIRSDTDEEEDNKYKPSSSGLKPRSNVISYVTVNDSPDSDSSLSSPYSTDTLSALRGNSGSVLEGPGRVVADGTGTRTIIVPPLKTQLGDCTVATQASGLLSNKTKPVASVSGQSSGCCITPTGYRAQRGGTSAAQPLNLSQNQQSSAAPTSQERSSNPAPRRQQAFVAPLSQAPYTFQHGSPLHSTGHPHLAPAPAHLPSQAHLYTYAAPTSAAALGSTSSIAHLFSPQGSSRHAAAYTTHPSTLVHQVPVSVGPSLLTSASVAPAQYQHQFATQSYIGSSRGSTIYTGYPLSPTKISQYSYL

[39] = biological target: Activin receptor type-1 (Homo sapiens) (UniProt Q04771); conditions: Compound concentration 1000.0 nM
[40] = biological target: Tyrosine-protein kinase Mer (Homo sapiens) (UniProt Q12866); conditions: Compound concentration 1000.0 nM
[41] = biological target: Tyrosine-protein kinase CSK (Homo sapiens) (UniProt P41240); conditions: Compound concentration 1000.0 nM
[42] = biological target: SNF-related serine/threonine-protein kinase (Homo sapiens) (UniProt Q9NRH2); conditions: Compound concentration 1000.0 nM
[43] = biological target: Receptor-type tyrosine-protein kinase FLT3 (Homo sapiens) (UniProt P36888); conditions: Compound concentration 1000.0 nM
[44] = biological target: MAP kinase-activated protein kinase 5 (Homo sapiens) (UniProt Q8IW41); conditions: Compound concentration 1000.0 nM

Tyrosine-protein kinase ABL1 (Homo sapiens), sequence (P00519 whole entry): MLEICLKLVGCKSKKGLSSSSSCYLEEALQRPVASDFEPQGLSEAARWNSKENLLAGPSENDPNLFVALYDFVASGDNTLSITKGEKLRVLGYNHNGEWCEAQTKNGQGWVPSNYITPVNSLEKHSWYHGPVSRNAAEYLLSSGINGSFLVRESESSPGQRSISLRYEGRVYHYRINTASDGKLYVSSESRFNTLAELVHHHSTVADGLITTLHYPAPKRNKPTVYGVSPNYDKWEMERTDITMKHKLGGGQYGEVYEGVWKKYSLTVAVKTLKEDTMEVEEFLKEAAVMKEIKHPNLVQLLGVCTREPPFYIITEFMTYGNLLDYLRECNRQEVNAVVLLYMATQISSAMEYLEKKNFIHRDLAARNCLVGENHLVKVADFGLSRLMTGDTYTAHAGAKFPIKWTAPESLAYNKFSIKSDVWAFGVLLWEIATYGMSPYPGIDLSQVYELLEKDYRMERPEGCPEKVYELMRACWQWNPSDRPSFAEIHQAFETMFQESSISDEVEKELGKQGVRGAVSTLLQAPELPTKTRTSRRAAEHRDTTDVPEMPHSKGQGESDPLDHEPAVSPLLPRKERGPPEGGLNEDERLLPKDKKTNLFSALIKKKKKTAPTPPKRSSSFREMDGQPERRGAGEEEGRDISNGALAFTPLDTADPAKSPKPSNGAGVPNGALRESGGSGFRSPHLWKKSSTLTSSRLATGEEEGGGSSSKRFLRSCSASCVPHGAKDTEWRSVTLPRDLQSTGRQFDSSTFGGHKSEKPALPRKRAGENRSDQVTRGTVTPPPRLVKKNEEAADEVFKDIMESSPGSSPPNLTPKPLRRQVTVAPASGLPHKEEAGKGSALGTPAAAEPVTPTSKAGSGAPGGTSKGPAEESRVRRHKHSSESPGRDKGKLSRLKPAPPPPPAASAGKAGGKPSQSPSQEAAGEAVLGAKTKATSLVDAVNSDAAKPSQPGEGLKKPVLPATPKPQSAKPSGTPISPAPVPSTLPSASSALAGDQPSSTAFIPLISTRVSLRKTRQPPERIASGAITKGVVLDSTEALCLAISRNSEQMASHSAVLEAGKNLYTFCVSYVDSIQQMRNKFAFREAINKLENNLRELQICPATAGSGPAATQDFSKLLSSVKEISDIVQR

CCCOc1ccc([C@H]2[C@H](C(=O)O)[C@@H](c3ccc4c(c3)OCO4)CN2CC(=O)Nc2c(CC)cccc2CC)cc1 [A-192621]
-12.3%: inhibition at 60 min, 10 µM [2]
0.7%: % Inhibition of Control Values (Mean n=2) [14]
23.6%: % Inhibition of Control Specific Binding (Mean n=2) [32]
inactive: residual activity [1] 73% | residual activity [3] 98% | residual activity [4] 97% | residual activity [5] 96% | residual activity [6] 100% | residual activity [7] 92% | residual activity [8] 68% | residual activity [9] 72% | residual activity [10] 83% | residual activity [11] 77% | residual activity [12] 85% | residual activity [13] 71% | residual activity [15] 87% | residual activity [16] 100% | residual activity [17] 82% | residual activity [18] 76% | residual activity [19] 100% | residual activity [20] 90% | residual activity [21] 97% | residual activity [22] 86% | residual activity [23] 77% | residual activity [24] 61% | residual activity [25] 95% | residual activity [26] 91% | residual activity [27] 66% | residual activity [28] 86% | residual activity [29] 57% | residual activity [30] 73% | residual activity [34] 74% | residual activity [35] 100% | residual activity [36] 100% | residual activity [37] 82% | residual activity [38] 75% | residual activity [39] 100% | residual activity [40] 87% | residual activity [41] 80% | residual activity [42] 84% | residual activity [43] 80% | residual activity [44] 65%
-12.4%: % Inhibition of Control Specific Binding (Mean n=2) [31]
31.9%: % Inhibition of Control Specific Binding (Mean n=2) [33]

CCCOc1ccc([C@@H]2[C@@H](C(=O)O)[C@H](c3ccc4c(c3)OCO4)CN2CC(=O)Nc2c(CC)cccc2CC)cc1 [A-1806262]
-14.5%: inhibition at 60 min, 10 µM [2]
54.1%: % Inhibition of Control Specific Binding (Mean n=2) [33]
inactive: residual activity [1] 80% | residual activity [3] 90% | residual activity [4] 75% | residual activity [5] 100% | residual activity [6] 93% | residual activity [7] 59% | residual activity [8] 81% | residual activity [9] 73% | residual activity [10] 93% | residual activity [11] 93% | residual activity [12] 89% | residual activity [13] 72% | residual activity [15] 100% | residual activity [16] 100% | residual activity [17] 93% | residual activity [18] 86% | residual activity [19] 94% | residual activity [20] 89% | residual activity [21] 93% | residual activity [22] 100% | residual activity [23] 76% | residual activity [24] 82% | residual activity [25] 96% | residual activity [26] 93% | residual activity [27] 93% | residual activity [28] 87% | residual activity [29] 73% | residual activity [30] 88% | residual activity [34] 85% | residual activity [35] 100% | residual activity [36] 87% | residual activity [37] 90% | residual activity [38] 79% | residual activity [39] 95% | residual activity [40] 97% | residual activity [41] 91% | residual activity [42] 87% | residual activity [43] 71% | residual activity [44] 87%
0.6%: % Inhibition of Control Values (Mean n=2) [14]
-13.4%: % Inhibition of Control Specific Binding (Mean n=2) [31]
18.3%: % Inhibition of Control Specific Binding (Mean n=2) [32]

Source: ChEMBL document CHEMBL4507261, “Data for DCP probe A-192621” (2021)
